These results are taken from patent publication US6777422B2, “Substituted tetrahydroisoquinolines as C5a receptor modulators” (Neurogen Corp., priority 2002, dated 2004).

Bounds are passed on as bounds.

The target of one experiment is T1, human C5a receptor (Homo sapiens, UniProt P21730).
T1 construct: endogenous in cells; host or cells: U937 cells differentiated with 1 mM dibutyryl cAMP
T1 sequence (P21730 1-350): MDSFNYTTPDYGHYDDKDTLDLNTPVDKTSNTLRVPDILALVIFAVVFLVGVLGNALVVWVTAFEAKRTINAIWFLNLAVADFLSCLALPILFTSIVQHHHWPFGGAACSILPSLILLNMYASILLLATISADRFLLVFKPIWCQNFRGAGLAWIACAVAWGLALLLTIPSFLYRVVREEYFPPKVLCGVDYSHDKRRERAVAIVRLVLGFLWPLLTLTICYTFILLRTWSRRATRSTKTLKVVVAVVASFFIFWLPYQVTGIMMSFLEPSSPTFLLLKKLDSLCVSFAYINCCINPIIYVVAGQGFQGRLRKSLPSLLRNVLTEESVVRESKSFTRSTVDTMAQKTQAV
Nature of the experiment: C5a receptor mediated calcium mobilization assay (Example 20). The note with it: differentiated U937 cells, read-out: Ca2+ (Ki in the standard assay of C5a receptor mediated calcium mobilization). The class given is cell-based. In a few lines:
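Differentiated U937 cells (dibutyryl cAMP, 48 h) loaded with Fluo-3 were pre-incubated 1 h with compound at 1 μM, then challenged with 0.3 nM (final) human recombinant C5a. Calcium response monitored by FLIPR fluorescence (Ex 480/Em 530 nm); antagonism defined as ≥2-fold decrease versus C5a alone.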
In the case of `Cc1cc(C)c(C2c3ccccc3CCN2CC(=O)N(Cc2ccccc2F)C2Cc3ccccc3C2)c(C)c1` (centres unmarked) [Compound 80, N-(indan-2-yl)-N-(2-fluorobenzyl)-2-(1-mesityl-3,4-dihydroisoquinolin-2(1H)-yl)acetamide], the Ki is < 1000 nM.

As to `C[C@@H](C(=O)N(Cc1ncccc1F)C1Cc2ccccc2C1)N1CCc2ccccc2[C@@H]1c1cccc2ccccc12` [Compound 126, (2S)-N-(indan-2-yl)-N-[(3-fluoropyridin-2-yl)methyl]-2-[(1R)-1-(1-naphthyl)-3,4-dihydroisoquinolin-2(1H)-yl]propanamide], the Ki was < 1000 nM. On the same count and under the same terms, under `C[C@H]1CN(CC(=O)N(Cc2ccccc2F)C2Cc3ccccc3C2)[C@@H](c2ccccc2Cl)c2ccccc21` [Compound 59, 2-[(1R,4R)-1-(2-chlorophenyl)-4-methyl-3,4-dihydroisoquinolin-2(1H)-yl]-N-(indan-2-yl)-N-(2-fluorobenzyl)acetamide] stands < 1000 nM.

Regarding `Cc1c(Cl)cccc1C1c2ccccc2CCN1CC(=O)N(Cc1ccccc1F)C1Cc2ccccc2C1` (centres unmarked) [Compound 65, 2-[1-(3-chloro-2-methylphenyl)-3,4-dihydroisoquinolin-2(1H)-yl]-N-(indan-2-yl)-N-(2-fluorobenzyl)acetamide], the Ki was < 1000 nM. As to `O=C(CN1CCc2ccccc2[C@H]1c1ccccc1Br)N(Cc1ccccc1F)C1Cc2ccccc2C1` (stereo in doubt) [Compound 22, 2-[1-(2-bromophenyl)-3,4-dihydroisoquinolin-2(1H)-yl]-N-(indan-2-yl)-N-(2-fluorobenzyl)acetamide], the Ki is < 1000 nM. Consider `COc1cccc(CN(C(=O)[C@H](C)N2CCc3ccccc3[C@@H]2c2cccc3ccccc23)C2Cc3ccccc3C2)n1` [Compound 124, (2S)-N-(indan-2-yl)-N-[(6-methoxypyridin-2-yl)methyl]-2-[(1R)-1-(1-naphthyl)-3,4-dihydroisoquinolin-2(1H)-yl]propanamide], for which the Ki was < 1000 nM. The same measure, in the same setting: as for `COc1cccc2c1C(c1ccccc1C)N(CC(=O)N(Cc1ccccc1F)C1Cc3ccccc3C1)CC2` (centres unmarked) [Compound 14, N-(indan-2-yl)-N-(2-fluorobenzyl)-2-[8-methoxy-1-(2-methylphenyl)-3,4-dihydroisoquinolin-2(1H)-yl]acetamide], the figure is < 1000 nM; as for `C[C@@H](C(=O)N(Cc1cccc(C(=O)N(C)C)c1)C1Cc2ccccc2C1)N1CCc2ccccc2[C@@H]1c1ccccc1Cl` [Compound 105, 3-{[{(2S)-2-[(1R)-1-(2-chlorophenyl)-3,4-dihydroisoquinolin-2(1H)-yl]propanoyl}(indan-2-yl)amino]methyl}-N,N-dimethylbenzamide], < 1000 nM.

Staying with this experiment, now noted: differentiated U937 cells, unit inferred, read-out: Ca2+ (numeric value, C5a receptor mediated calcium mobilization).
As for `Cc1ccccc1[C@@H]1CCCCN1[C@@H](C)C(=O)N(Cc1ccccc1F)C1Cc2ccccc2C1` (stereo in doubt) [Compound 132, N-(2-Fluoro-benzyl)-N-indan-2-yl-2-(2-o-tolyl-piperidin-1-yl)-propionamide], the Ki was determined as 115 nM.

Regarding `CN(CC(=O)N(Cc1ccccc1F)C1Cc2ccccc2C1)C(c1ccccc1)c1ccccc1` [Compound 133, 2-(Benzhydryl-methyl-amino)-N-(2-fluoro-benzyl)-N-indan-2-yl-acetamide], the Ki worked out at 465 nM. As to `Cc1ccccc1C1c2ccsc2CCN1CC(=O)N(Cc1ccccc1F)C1Cc2ccccc2C1` (centres unmarked) [Compound 136, N-(2-Fluoro-benzyl)-N-indan-2-yl-2-(4-o-tolyl-6,7-dihydro-4H-thieno[3,2-c]pyridin-5-yl)-acetamide], the Ki is 39.9 nM.
